From patent US20100036122A1, “CLEAVAGE AGENT SELECTIVELY ACTING ON SOLUBLE ASSEMBLY OF AMYLOIDOGENIC PEPTIDE OR PROTEIN” (priority 2006, published 2010)
Entries after “also recorded” stand apart in the source; their conditions may differ.

Columns and labels:
Assay type in all cases: biochemical
Aβ42 = Aβ42 (Homo sapiens, UniProt P05067); experiment: Cleavage of oligomers of Aβ42 by cleavage agent (MALDI-TOF MS, cleavage yield); conditions: for cleavage of Aβ42 (MALDI-TOF mass spectrum): cleavage agent 0.50-1.0 μM, pH 7.50, 36 hours
Procedure: (§1) The activity of each cleavage agent was tested at 37° C. and pH 7.50 (0.050 M phosphoric acid) in Eppendorf tubes unless indicated otherwise in the Examples.
(§2) To generate the monomeric form of Aβ40 or Aβ42 in the early reaction stage, Aβ40 or Aβ42 was treated with NaOH prior to exposure to the pH 7.50 reaction medium (Fezoui, Y.; Hartley, D. M.; Harper, J. D.; Khurana, R.; Walsh, D. M.; Condron, M. M.; Selkoe, D. J.; Lansbury, P. T. Jr.; Fink, A. L.; Teplow, D. B. Amyloid 2000, 7, 166-178). The results for measurement of the fraction of Aβ40 (◯) or Aβ42 ([…]) (initial concentration: 4.0 μM) passing the membrane with cut-off MW of 10000 after incubation at pH 7.50 and 37° C. for various periods of self-assembly are illustrated in FIG. 5. According to the results, most (>80%) of Aβ42 (MW 4514) passes the filter immediately after exposure to the pH 7.50 medium. During the filtration through the membrane which takes about 10 minutes, large oligomers which cannot pass the membrane may have been generated. Therefore, it appears that most of the Aβ42 passed the membrane.
(§3) Unless specifically described in the Examples, cleavage reaction was initiated by adding Aβ40 or Aβ42 to the solution containing the cleavage agent, and the cleavage yield was estimated through the following process.
(§4) A product solution formed by the cleavage reaction was passed through the membrane with a cut-off MW of 10000 to remove aggregates of Aβ40 or Aβ42. Thereafter, the cleavage products were separated by HPLC, and the total amount of the cleavage products was estimated. The cleavage product was degraded to amino acids by alkaline hydrolysis, and then, the total amount of amino acids was estimated with fluorescamine to determine the total amount of the cleavage product. The cleavage yield was calculated by comparing the amount of the cleavage product with the initially added amount of the Aβ40 or Aβ42.
(§5) The cleavage yield measured by incubating Aβ40 or Aβ42 (4.0 μM) with various concentrations of cleavage agent A at pH 7.50 and 37° C. for 36 hours is illustrated in FIG. 8. The cleavage yields of Aβ40 or Aβ42 in the Examples are the mean value measured by using 4˜6 different reaction mixtures. The relative standard deviation (% RSD) of each cleavage yield is 5-15%.

[1] = target: T1, amylin (Am; human islet amyloid polypeptide) (Homo sapiens, UniProt P10997); experiment: Cleavage of oligomers of amylin by cleavage agent (MALDI-TOF MS, cleavage yield); conditions: for cleavage of Am (MALDI-TOF mass spectrum of HPLC-purified products) / cleavage products of Am (MALDI-TOF MS): cleavage agent 0.38-7.1 μM (figure legends), pH 7.50, 36 hours
T1 construct: Am is a cyclic oligopeptide consisting of 37 amino acid residues
T1 sequence (P10997 34-70 limits assumed): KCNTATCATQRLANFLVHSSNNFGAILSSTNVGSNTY
Procedure: as §1
MALDI-TOF mass spectrum of the products purified with HPLC after incubating Am (4.0 μM) with cleavage agent A is illustrated in FIG. 12. In this Example and hereafter, MALDI-TOF mass spectra of cleavage products for Am were taken after purification with HPLC by the method described below.
Unless specifically described in the Examples, cleavage reaction of Am was initiated by adding Am to the solution containing the cleavage agent, and the cleavage yield was estimated through the following process. The product solution obtained from the cleavage reaction was passed through the membrane (cut-off MW=10000) to remove Am aggregates, and then the cleavage product was separated by HPLC. The total amount of the cleavage product was quantified. The cleavage product was converted to amino acids by alkaline hydrolysis, and the total amount of amino acids was estimated by using fluorescamine to determine the amount of the cleavage product. The cleavage yield was calculated by comparing the amount of cleavage product with that of the initial amount of Am.
The cleavage yields measured after reacting Am (4.0 μM) with various concentrations of cleavage agent A at 37° C. and pH 7.50 for 36 hours are illustrated in FIG. 13. The cleavage yields of Am in the Examples are the mean value measured by using 4[…]6 different reaction mixtures. The relative standard deviation of each cleavage yield is 5-15%.

Aβ40 = Aβ40 (Homo sapiens, UniProt P05067); experiment: Cleavage of oligomers of Aβ40 by cleavage agent (MALDI-TOF MS, cleavage yield); conditions: for cleavage of Aβ40 (MALDI-TOF mass spectrum): pH 7.50, 36 hours
Procedure: as §1, §2, §3, §4, §5

α-synuclein (Syn) = target: T2, α-synuclein (Syn) (Homo sapiens, UniProt P37840, M5L); experiment: Cleavage of oligomer of α-synuclein by cleavage agent (cleavage yield); conditions: Syn 70 μM, pH 7.50, 37° C.; for cleavage yields of Syn: various concentrations of cleavage agent, 3 days
T2 construct: α-synuclein (Syn) is a protein consisting of 140 amino acids; histidine tag (LEHHHHHH) (C); made in house
Procedure: as §1
In the Examples, the slightly modified derivatives of α-synuclein (Syn) were used as a substrate to obtain α-synuclein (Syn) by gene recombination. To facilitate purification by the nickel chelate method, histidine tag (LEHHHHHH) was adhered to C-terminus. To avoid interference in the transcription, leucine instead of methionine was incorporated as the 5th amino acid residue.
Unless the context clearly indicates otherwise, Syn cleavage was initiated by adding Syn to the solution of the cleavage agent. The cleavage yield was calculated according to the following method.
A product solution formed by the cleavage reaction was passed through the membrane with the cut-off MW of 10000 to remove Syn and its assemblies. Then, the cleavage products were separated by HPLC, and the total amount of the cleavage products was estimated. The cleavage product was degraded to amino acids through alkaline hydrolysis. The total amount of the amino acids was then estimated with fluorescamine to quantify the total amount of the cleavage product. The cleavage yield was calculated by comparing the amount of the cleavage product with the initially added amount of Syn.
The cleavage yields measured by incubating Syn (70 μM) with various concentrations of cleavage agent A at pH 7.50 and 37° C. for 3 days are illustrated in FIG. 15. The cleavage yields in the Examples are the mean value measured by using 4˜6 different reaction solutions. Since the MW of Syn used in the Examples is about 15000, some of the protein fragments formed by the cleavage of Syn might have been too large to pass through the membrane with cut-off MW of 10000.

[2] = tested on: horse heart myoglobin, bovine serum γ-globulin, bovine serum albumin, human serum albumin, egg white lysozyme, egg white ovalbumin, bovine pancreas insulin; experiment: Reaction with control proteins (not amyloidogenic); conditions: each protein 2-7 μM, cleavage agent 5.0 μM, pH 7.50, 37° C., 36 hours
scrambled Aβ42 = experiment: Reaction with control peptides: scrambled Aβ42; conditions: scrambled Aβ42 4.0 μM, cleavage agent 3.0 μM, pH 7.50, 37° C., 36 hours
Procedure: The following control experiment was performed on cleavage agent A. The peptides or proteins used in the control experiment are not amyloidogenic. […] Two kinds of scrambled Aβ42, having the same 42 amino acids as Aβ42 in a scrambled sequence ([…], […]) (4.0 μM), were not cleaved by incubation with cleavage agent A (3.0 μM) at pH 7.50 and 37° C. for 36 hours.

[3] = Aβ42 4.0 μM, pH 7.50, 37° C., 36 hours
[4] = Am 4.0 μM, cleavage agent 1.0 μM, 36 hours, 37° C., pH 7.50
[5] = concluded from preincubation and filtration experiments
[6] = Aβ40 4.0 μM, cleavage agent 3.0 μM, 37° C.
[7] = Aβ42 4.0 μM, cleavage agent 3.0 μM, 36 hours, 37° C., pH 7.50
[8] = Aβ40 4.0 μM, cleavage agent 3.0 μM, 36 hours, 37° C., pH 7.50

Sequence of Aβ42 (P05067 672-713 limits assumed): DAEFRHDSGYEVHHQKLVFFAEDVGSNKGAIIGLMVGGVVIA
Sequence of Aβ40 (P05067 672-711 limits assumed): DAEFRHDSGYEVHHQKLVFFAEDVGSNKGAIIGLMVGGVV

| Compound | cleavage of Aβ42 (MALDI-TOF mass spectrum) (Aβ42; Aβ42 4.0 μM, 37° C.) | concentration of cleavage agent at which cleavage reaction was detected (Aβ42; [3]) | plateau value of the yield for cleavage of Aβ42 at high concentration of the cleavage agent (Aβ42; [3]) | cleavage of Am (MALDI-TOF mass spectrum of HPLC-purified products) ([1]; Am 4.0 μM, 37° C.) | cleavage products of Am (MALDI-TOF MS) ([1]; Am 4.0 μM, 37° C.) | cleavage of non-amyloidogenic control proteins [2] | cleavage of two kinds of scrambled Aβ42 (control) (scrambled Aβ42) | cleavage of Aβ40 (MALDI-TOF mass spectrum) (Aβ40; [6]) | cleavage yields of Syn (α-synuclein (Syn)) | further results |
| --- | --- | --- | --- | --- | --- | --- | --- | --- | --- | --- |
| Co^III complex of cyclen [reference compound] |  |  |  |  |  |  |  |  |  | cleavage of Aβ42 by complex lacking the recognition site (Aβ42; complex 20 μM, Aβ42 4.0 μM, pH 7.50, 37° C., 36 hours): No peptide cleavage was observed; cleavage of Am by complex lacking the recognition site ([1]; complex 20 μM, Am 4.0 μM, pH 7.50, 37° C., 36 hours): No peptide cleavage was observed; cleavage of Aβ40 by complex lacking the recognition site (Aβ40; complex 20 μM, Aβ40 4.0 μM, pH 7.50, 37° C., 36 hours): No peptide cleavage was observed; cleavage of Syn by complex lacking the recognition site (α-synuclein (Syn); complex 20 μM, 36 hours): No peptide cleavage was observed |
| Cc1ccccc1CNc1nc(NCCC(=O)NCCCN2CCNCCNCCNCC2)nc(OCCN(C)c2ccc(-c3nc4ccccc4s3)cc2)n1.O.O.[Co+3] [cleavage agent D] | cleaved | 50 to 100 nM | about 12% | cleaved | Am20-37 and Am19-37 | the same as those obtained in Example 1 | the same as those obtained in Example 1 |  |  | cleavage of Aβ40 (MALDI-TOF MS data) (Aβ40; Aβ40 4.0 μM, cleavage agent 0.1-10 μM, pH 7.50, 37° C., 36 hours): did not reveal any evidence of cleavage |
| CC(Nc1nc(NCc2ccc(Cl)cc2)nc(OCCN(C)c2ccc(-c3nc4ccccc4s3)cc2)n1)C(=O)NCCCN1CCNCCNCCNCC1.O.O.[Co+3] (centres unmarked) [cleavage agent B] | cleaved | 30 to 50 nM | ~17% | cleaved | Am20-37, Am19-37 and Am17-37 | the same as those obtained in Example 1 | the same as those obtained in Example 1 | cleaved | fairly large | cleavage yield against reaction time ([1]; Am 4.0 μM, cleavage agent 1.0 μM, 37° C., pH 7.50): does not increase even if the reaction period is increase beyond 36 hours; amounts of cleavage products after preincubation of Am for 6 hours compared with no preincubation [1, 4]: not much smaller; cleavage of Am after preincubation of Am for 36 hours or longer [1, 4]: little cleavage reaction occurred; assembly species of Am cleaved (selectivity) [1, 5]: oligomers of Am instead of the monomer, protofibrils, and fibrils of Am are cleaved; plateau value of the yield for cleavage of Aβ40 at high concentration of the cleavage agent (Aβ40; Aβ40 4.0 μM, pH 7.50, 37° C., 36 hours): about 12% |
| CCCCNc1nc(NCCCN2CCNCCNCCNCC2)nc(NCc2ccc(-c3nc4ccccc4o3)cc2)n1.O.O.[Co+3] [cleavage agent A] | cleaved | 100 nM | about 30% | cleaved | Am20-37 and Am19-37 | cleavage reaction was not detected | not cleaved | cleaved | fairly large | cleavage of Aβ42 after preincubation of Aβ42 for 24 hours (Aβ42; [7]): little cleavage was observed; cleavage yield after preincubation of Aβ42 for 3-6 hours compared with no preincubation (Aβ42; [7]): not much smaller; assembly species of Aβ42 cleaved (selectivity) (Aβ42; [5]): the oligomer is cleaved by the cleavage agent A and not the Aβ42 monomer, protofibril, or fibril; cleavage of Aβ40 after preincubation of Aβ40 for 24 hours (Aβ40; [8]): considerable peptide cleavage; effect of preincubation of Aβ40 for periods longer than 24 hours on cleavage yield (Aβ40; [8]): reduces the cleavage yield; yield for cleavage of Aβ40 after preincubation for 3-18 hours (Aβ40; [8]): does not decrease considerably; assembly species of Aβ40 cleaved (selectivity) (Aβ40; [5]): protofibrils or fibrils of Aβ40 are not cleaved |
| CC(C)CC(Nc1nc(OCCN(C)c2ccc(-c3nc4ccccc4s3)cc2)nc(N2CCCCC2)n1)C(=O)NCCCN1CCNCCNCCNCC1.O.O.[Co+3] (centres unmarked) [cleavage agent F] |  |  |  | cleaved | Am19-37 and Am17-37; also recorded: Am20-37, Am17-37 and Am14-37 | the same as those obtained in Example 1 | the same as those obtained in Example 1 |  |  |  |
| CCCCNc1nc(NCCCN2CCNCCNCCNCC2)nc(OCCN(C)c2ccc(-c3nc4ccccc4s3)cc2)n1.O.O.[Co+3] [cleavage agent E] |  |  |  | cleaved | Am17-37, Am16-37 and Am13-37 | the same as those obtained in Example 1 | the same as those obtained in Example 1 |  |  |  |
